Assay results from patent US20040096815A1, “Method of identifying an eventual modification of at least one biological parameter making use of living cells which are subjected to a stress and living cells which are not subjected to this same stress” (COLETICA, priority 2002, published 2004).

System: reconstructed gingival mucous membrane epithelia
Experiment: mRNA Expression Array on reconstructed gingival mucous membrane epithelia treated with irritant/sensitizing agents or actives
Type: cell-based
Details: (treated/non-stressed)x100; 20 μl per epithelium 1 h, then 24 h; SLS 5%, LPS 1000 U/ml, Prednisolone 10 mM, Inhipase 3%
Excerpt: 1 to 2.10^6 epithelial cells of gingival mucous membrane called <<reference gingival mucous membrane epithelia cells>> (gingival biopsy, Passage 3 (3rd amplification by trypsination)), extracted as described in Example 1, are sown in Boyden chamber-type inserts (membrane of porosity 0.4 μm and diameter 10 mm—fibroblast nutrient under layer), in a DMEM-Glutamax/Ham F-12 (ratio 3/1 v/v) culture medium supplemented with 10% of Hyclone II calf serum, with ascorbic acid-2-phosphate at a final concentration of 1 millimolar, with EGF at a final concentration of 10 ng/mL, with hydrocortisone at a final concentration of 0.4 micrograms/milliliter, with umulin at a final concentration of 0.12 IU/milliliter, with isuprel at a final concentration of 0.4 micrograms/milliliter, with triiodothyronine at a final concentration of 2.10^−9 molar, with adenine at a final concentration of 24.3 micrograms/milliliter, with penicillin at a final concentration of 100 IU/milliliter, with amphotericin B at a final concentration of 1 microgram/milliliter, and with gentamycin at a final concentration of 20 micrograms/milliliter, and for a period of culture by immersion of 3 to 8 days.
The cultures of epithelial cells are then maintained in immersion for 12 to 18 days in the same culture medium as that used for the immersion culture, except the percentage of calf serum which is lowered by 10% to 1%.
At the end of experimentation, the medium is eliminated and replaced with PBS pH 7.4, and the reconstructed epithelia Which are present in the inserts are stressed by various potentially irritant or sensitizing agents, at the rate of 20 μl per epithelium and for one hour: 5% sodium lauryl sulfate (SLS), Lipopolysaccharide (LPS) 1000 U/ml, an anti-inflammatory agent Prednisolone 10 mM (Sigma) and an active Inhipase® 3% (extract of the root of pueraria lobata, Coletica) also at the rate of 20 μl per epithelium, for 1 hour. The agents applied on the reconstructed epithelia are then eliminated and then the reconstructed epithelia are incubated for 24 additional hours in immersion medium without calf serum. Certain reconstructed epithelia are analyzed in terms of cell viability by a test with MTT (methylthiazoletetrazolium). Other reconstructed epithelia are scraped off and taken up into Tri Reagent® (T9424 Sigma, St Louis USA) and then extracted with chloroform. After centrifugation at 12,000 g for 15 minutes at 4° C., the RNAs are found in the upper layer.
The determination of the mRNAs of the epithelia is made by Expression Array (R&D System), according to the protocol defined by the supplier.

## C[C@]12C=CC(=O)C=C1CC[C@@H]1[C@@H]2[C@@H](O)C[C@@]2(C)[C@H]1CC[C@]2(O)C(=O)CO [Prednisolone]
  IL1α mRNA, factor of variation with respect to the non-stressed control: 62
  IL1β mRNA, factor of variation with respect to the non-stressed control: 75
  IL6 mRNA, factor of variation with respect to the non-stressed control: 81
  IL7 mRNA, factor of variation with respect to the non-stressed control: 102
  IL8 mRNA, factor of variation with respect to the non-stressed control: 105
  IL10 mRNA, factor of variation with respect to the non-stressed control: 152
  IL11 mRNA, factor of variation with respect to the non-stressed control: 101
  IL12 mRNA, factor of variation with respect to the non-stressed control: 67
  IL15 mRNA, factor of variation with respect to the non-stressed control: 99
  IL-1R AcP mRNA, factor of variation with respect to the non-stressed control: 95
  IL-1RI mRNA, factor of variation with respect to the non-stressed control: 83
  IL-1RII mRNA, factor of variation with respect to the non-stressed control: 88
  IL-1ra mRNA, factor of variation with respect to the non-stressed control: 112
  PLA2 mRNA, factor of variation with respect to the non-stressed control: 93
  TNFα mRNA, factor of variation with respect to the non-stressed control: 67

## CCCCCCCCCCCCOS(=O)(=O)[O-].[Na+] [SLS, sodium lauryl sulfate]
  IL1α mRNA, factor of variation with respect to the non-stressed control: 241
  IL1β mRNA, factor of variation with respect to the non-stressed control: 114
  IL6 mRNA, factor of variation with respect to the non-stressed control: 163
  IL7 mRNA, factor of variation with respect to the non-stressed control: 127
  IL8 mRNA, factor of variation with respect to the non-stressed control: 183
  IL10 mRNA, factor of variation with respect to the non-stressed control: 75
  IL11 mRNA, factor of variation with respect to the non-stressed control: 112
  IL12 mRNA, factor of variation with respect to the non-stressed control: 132
  IL15 mRNA, factor of variation with respect to the non-stressed control: 147
  IL-1R AcP mRNA, factor of variation with respect to the non-stressed control: 102
  IL-1RI mRNA, factor of variation with respect to the non-stressed control: 154
  IL-1RII mRNA, factor of variation with respect to the non-stressed control: 137
  IL-1ra mRNA, factor of variation with respect to the non-stressed control: 82
  PLA2 mRNA, factor of variation with respect to the non-stressed control: 102
  TNFα mRNA, factor of variation with respect to the non-stressed control: 213
